In ChEMBL document CHEMBL2406963, “Tetrazole and triazole as bioisosteres of carboxylic acid: discovery of diketo tetrazoles and diketo triazoles as anti-HCV agents” (Bioorg Med Chem Lett, 2013):

What was measured:
Hepatitis C virus [1] = test: Antiviral activity against HCV infected in human Huh7 cells assessed as inhibition of viral replication by measuring EGFP autofluorescence at 50 uM by CCK8 assay relative to control; format: functional, Hepacivirus hominis; details: Huh-7
[2] = Selectivity index, ratio of CC50 for human HuH7 cells to EC50 for HCV; design: species or system Huh-7
[3] = Cytotoxicity against human HuH7 cells; format: cell-based, Huh-7
Hepatitis C virus [4] = test: Antiviral activity against HCV infected in human Huh7 cells assessed as inhibition of viral replication by measuring EGFP autofluorescence by CCK8 assay; format: functional, organism-based, Hepacivirus hominis; details: Huh-7
Hepatitis C virus [5] = test: Antiviral activity against HCV infected in human Huh7 cells assessed as inhibition of viral replication by measuring EGFP autofluorescence at 2 uM by CCK8 assay relative to control; format: functional, Hepacivirus hominis; details: Huh-7
Hepatitis C virus [6] = test: Inhibition of NS5A protein synthesis in HCV by Western blot analysis; format: functional, organism-based; details: Hepacivirus hominis
Hepatitis C virus [7] = test: Inhibition of viral genome mRNA expression in HCV by RT-PCR analysis; format: functional, organism-based; details: Hepacivirus hominis

Question: For `O=C(CC(=O)c1ccco1)c1nnn[nH]1`, which inhibition at 50 µM (Hepatitis C virus [1]) is on record?
Answer: 0.9%

Question: Which inhibition at 50 µM (Hepatitis C virus [1]) does the source give for `O=C(CC(=O)c1nnc[nH]1)c1ccccc1` here?
Answer: 24.8%

Question: For `O=C(CC(=O)c1nnn[nH]1)c1ccc(OCc2ccccc2)cc1`, which inhibition at 50 µM (Hepatitis C virus [1]) is on record?
Answer: 54.9%

Question: For `O=C(/C=C(\O)c1nnn[nH]1)c1c[nH]c2ccc(Cl)cc12`, which inhibition at 50 µM (Hepatitis C virus [1]) is on record?
Answer: 24.3%

Question: Which inhibition at 50 µM (Hepatitis C virus [1]) does the source give for `O=C(CC(=O)c1nnc[nH]1)c1cccc(OCc2ccc(F)cc2)c1` here?
Answer: 43.4%

Question: Which inhibition at 50 µM (Hepatitis C virus [1]) does the source give for `O=C(CC(=O)c1ccco1)c1nnc[nH]1` here?
Answer: 14.5%

Question: Which “Ratio CC50/EC50” value [2] does the source give for `O=C(CC(=O)c1nnc[nH]1)c1ccc(OCc2ccc(Cl)cc2)cc1` here?
Answer: >77

Question: What about the CC50 [3] of the same compound?
Answer: > 500 µM

Question: What about the inhibition at 50 µM (Hepatitis C virus [1]) of the same compound?
Answer: 70.2%

Question: What about the EC50 (Hepatitis C virus [4]) of the same compound?
Answer: 6.5 µM

Question: For `COc1ccc(C(=O)CC(=O)c2nnn[nH]2)cc1`, which inhibition at 50 µM (Hepatitis C virus [1]) is on record?
Answer: 28.7%

Question: With `CC(C)C(=O)OC[C@H]1O[C@@H](n2ccc(N)nc2=O)[C@](C)(F)[C@@H]1OC(=O)C(C)C` [MERICITABINE] as the compound, how does the inhibition at 2 µM (Hepatitis C virus [5]) read?
Answer: 75.3%

Question: Which inhibition at 50 µM (Hepatitis C virus [1]) does the source give for `O=C(CC(=O)c1ccccc1OCc1ccc(F)cc1)c1nnc[nH]1` here?
Answer: 55%

Question: With `O=C(CC(=O)c1ccccc1OCc1ccccc1)c1nnc[nH]1` as the compound, how does the inhibition at 50 µM (Hepatitis C virus [1]) read?
Answer: 34.4%

Question: Which inhibition at 50 µM (Hepatitis C virus [1]) does the source give for `O=C(CC(=O)c1nnn[nH]1)c1cccc(OCc2ccccc2)c1` here?
Answer: 11.1%

Question: Which inhibition at 50 µM (Hepatitis C virus [1]) does the source give for `O=C(CC(=O)c1nnn[nH]1)c1ccc([N+](=O)[O-])cc1` here?
Answer: 14.7%

Question: For `O=C(CC(=O)c1nnn[nH]1)c1cccc(OCc2ccc(Cl)cc2)c1`, which inhibition at 50 µM (Hepatitis C virus [1]) is on record?
Answer: 43.6%

Question: For `O=C(CC(=O)c1nnn[nH]1)c1ccccc1`, which inhibition at 50 µM (Hepatitis C virus [1]) is on record?
Answer: -1.3%

Question: For `O=C(CC(=O)c1nnc[nH]1)c1ccc(OCc2ccc(F)cc2)cc1`, which inhibition (Hepatitis C virus [6]) is on record?
Answer: Dose-dependent effect

Question: And the “Ratio CC50/EC50” value [2]?
Answer: >128

Question: And the CC50 [3]?
Answer: > 500 µM

Question: And the inhibition at 50 µM (Hepatitis C virus [1])?
Answer: 69.7%

Question: And the EC50 (Hepatitis C virus [4])?
Answer: 3.9 µM

Question: What about the inhibition (Hepatitis C virus [7]) of the same compound?
Answer: Dose-dependent effect

Question: For `O=C(CC(=O)c1ccccc1OCc1ccc(Cl)cc1)c1nnn[nH]1`, which inhibition at 50 µM (Hepatitis C virus [1]) is on record?
Answer: 36.2%

Question: With `O=C(CC(=O)c1nnc[nH]1)c1ccc(OCc2ccccc2)cc1` as the compound, how does the inhibition at 50 µM (Hepatitis C virus [1]) read?
Answer: 12.1%

Question: Which inhibition at 50 µM (Hepatitis C virus [1]) does the source give for `O=C(CC(=O)c1nnc[nH]1)c1cccc(OCc2ccc(Cl)cc2)c1` here?
Answer: 29.2%

Question: For `O=C(CC(=O)c1ccccc1OCc1ccc(Cl)cc1)c1nnc[nH]1`, which inhibition at 50 µM (Hepatitis C virus [1]) is on record?
Answer: 53.8%

Question: For `O=C(CC(=O)c1ccccc1OCc1ccc(F)cc1)c1nnn[nH]1`, which inhibition at 50 µM (Hepatitis C virus [1]) is on record?
Answer: 6.8%

Question: Which inhibition at 50 µM (Hepatitis C virus [1]) does the source give for `O=C(CC(=O)c1nnc[nH]1)c1cccc(OCc2ccccc2)c1` here?
Answer: 48.2%

Question: Which inhibition at 50 µM (Hepatitis C virus [1]) does the source give for `O=C(CC(=O)c1nnn[nH]1)c1cccc(OCc2ccc(F)cc2)c1` here?
Answer: 62.7%

Question: What does the source list for `O=C(CC(=O)c1ccccc1OCc1ccccc1)c1nnn[nH]1`?
Answer: Ratio CC50/EC50 [2]: >54; CC50 [3]: > 500 µM; inhibition at 50 µM (Hepatitis C virus [1]): 67.6%; EC50 (Hepatitis C virus [4]): 9.2 µM

Question: Which inhibition at 50 µM (Hepatitis C virus [1]) does the source give for `O=C(CC(=O)c1nnn[nH]1)c1ccc(OCc2ccc(F)cc2)cc1` here?
Answer: 10.7%

Question: Which inhibition at 50 µM (Hepatitis C virus [1]) does the source give for `O=C(/C=C(\O)c1nc[nH]n1)c1ccc(Cc2ccc(F)cc2)o1` [S-1360] here?
Answer: 22.4%

Question: For `O=C(CC(=O)c1nnn[nH]1)c1ccc(OCc2ccc(Cl)cc2)cc1`, which inhibition at 50 µM (Hepatitis C virus [1]) is on record?
Answer: 64.9%
